Consider twelve compounds from US20250171462A1 (NICO Therapeutics, Inc., priority 2022, published 2025).

A word on the IC50: it is the concentration that gives 50% inhibition.

This test concerns the target T1, full-length SARM1 (FL-SARM1) (Homo sapiens, UniProt Q6SZW1).
T1 sequence (Q6SZW1 28-724): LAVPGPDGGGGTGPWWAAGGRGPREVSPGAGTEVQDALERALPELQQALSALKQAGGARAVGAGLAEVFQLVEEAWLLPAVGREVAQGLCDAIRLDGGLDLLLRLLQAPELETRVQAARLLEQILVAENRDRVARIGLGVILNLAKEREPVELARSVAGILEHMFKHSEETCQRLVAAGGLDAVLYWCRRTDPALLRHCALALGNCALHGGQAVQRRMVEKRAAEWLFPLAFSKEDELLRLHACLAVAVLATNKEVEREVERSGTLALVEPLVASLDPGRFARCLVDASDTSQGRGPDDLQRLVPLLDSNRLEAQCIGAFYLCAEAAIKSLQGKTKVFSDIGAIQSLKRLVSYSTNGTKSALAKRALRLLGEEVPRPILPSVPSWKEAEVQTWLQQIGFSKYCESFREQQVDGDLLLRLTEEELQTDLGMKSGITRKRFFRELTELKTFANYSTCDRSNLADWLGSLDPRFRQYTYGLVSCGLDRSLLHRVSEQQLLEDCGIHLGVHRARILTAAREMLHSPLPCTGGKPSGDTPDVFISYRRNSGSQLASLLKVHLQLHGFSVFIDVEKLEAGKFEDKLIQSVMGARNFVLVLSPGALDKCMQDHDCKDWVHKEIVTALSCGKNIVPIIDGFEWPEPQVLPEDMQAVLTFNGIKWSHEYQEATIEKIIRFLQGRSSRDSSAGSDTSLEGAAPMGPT
The test is described as follows: FL-SARM1 cellular lysate assay (NAD/NADH-Glo detection of remaining NAD+, NMN-activated).

Setting [1] is: Activity (IC50 class), 11 point curve.
[2] abbreviates: Activity (μM) (IC50), 11 point curve.

Where two headings read alike, the source gives them in different places. A value given as a limit tells only on which side of the number the result lay.

`CCN1CC2CC(C1)N2C(=O)Nc1ccc(C)c(-c2ccccn2)c1` [Example 7, 3-Ethyl-N-(4-methyl-3-(pyridin-2-yl)phenyl)-3,6-diazabicyclo[3.1.1]heptane-6-carboxamide]: the IC50 reads like this: under setting [1], 1 to 10 µM; under setting [2], 4 µM.

In the case of `Cc1ccc(NC(=O)N2CCOCCC2C)cc1-c1ncc(F)cn1` (racemic) [Example 225, N-[3-(5-fluoropyrimidin-2-yl)-4-methylphenyl]-5-methyl-1,4-oxazepane-4-carboxamide], the IC50 is greater than 10 µM under setting [1] and 32 µM under setting [2].

The compound `Cc1nnc(C2CCCN2C(=O)Nc2ccc(C)c(-c3ccccn3)c2)o1` (racemic) [Example 87, 2-(5-methyl-1,3,4-oxadiazol-2-yl)-N-(4-methyl-3-pyridin-2-ylphenyl)pyrrolidine-1-carboxamide] yielded an IC50 under setting [1] greater than 10 µM and an IC50 under setting [2] of 17 µM.

Take `Cc1ccc(NC(=O)C2CCc3cccnc32)cc1-c1ncc(F)cn1` (racemic) [Example 290, N-[3-(5-fluoropyrimidin-2-yl)-4-methylphenyl]-6,7-dihydro-5H-cyclopenta[b]pyridine-7-carboxamide]: the IC50 was greater than 10 µM under setting [1] and 17 µM under setting [2].

For `Cc1ccc(NC(=O)N2CCc3ccccc3C2)cc1-c1ccccn1` [Example 101, N-(4-methyl-3-pyridin-2-ylphenyl)-3,4-dihydro-1H-isoquinoline-2-carboxamide], the concentration for half-maximal inhibition (IC50) reads like this: under setting [1], 1 to 10 µM; under setting [2], 10 µM.

Regarding `CC(=O)N1[C@H](C)CC[C@@H]1C(=O)Nc1ccc(C)c(-c2ncc(F)cn2)c1` [Example 286, (2R,5R)-1-acetyl-N-[3-(5-fluoropyrimidin-2-yl)-4-methylphenyl]-5-methylpyrrolidine-2-carboxamide], the concentration for half-maximal inhibition (IC50) is 1 to 10 µM under setting [1] and 1.7 µM under setting [2].

Compound `Cc1ccc(NC(=O)C2CC23CCC3)cc1-c1cccnn1` (racemic) [Example 293, N-(4-methyl-3-pyridazin-3-ylphenyl)spiro[2.3] hexane-2-carboxamide] gave a 50% inhibitory concentration (IC50) under setting [1] of 1 to 10 µM and an IC50 under setting [2] of 2.4 µM.

Regarding `COc1cccc(-c2cc(NC(=O)[C@@H]3CC3(F)F)ccc2C)n1` [Example 153, (1S)-2,2-difluoro-N-[3-(6-methoxypyridin-2-yl)-4-methylphenyl]cyclopropane-1-carboxamide], the IC50 was greater than 10 µM under setting [1] and 18 µM under setting [2].

On to `Cc1ccc(NC(=O)[C@H]2C[C@H]3C[C@H]3N2c2ncc(Cl)nn2)cc1-c1ncc(F)cn1` [Example 263, (1R,3R,5R)-2-(6-chloro-1,2,4-triazin-3-yl)-N-[3-(5-fluoropyrimidin-2-yl)-4-methylphenyl]-2-azabicyclo[3.1.0]hexane-3-carboxamide], for which the IC50 by setting is: under setting [1], 1 to 10 µM; under setting [2], 1.8 µM.

In the case of `Cc1ccc(NC(=O)N2C3CCCC2C3)cc1-c1ncccn1` [Example 52, N-(4-methyl-3-(pyrimidin-2-yl)phenyl)-6-azabicyclo[3.1.1]heptane-6-carboxamide], the IC50 under setting [2] stood at 0.5 µM and the half-maximal inhibitory concentration (IC50) (read-out: Activity (IC50 class), 11 point curve) lay within 0.0001 to 1 µM.

Take `Cc1ccc(NC(=O)C2C3CCC2(c2ccn(C)n2)C3)cc1-c1ncc(F)cn1` (mixture of isomers) [Example 317]: the IC50 runs as follows: under setting [1], 1 to 10 µM; under setting [2], 1 µM.

For `Cc1ccc(NC(=O)C2CCC2(F)F)cc1-c1ccccn1` (racemic) [Example 111, 2,2-difluoro-N-(4-methyl-3-pyridin-2-ylphenyl)cyclobutane-1-carboxamide], the IC50 is 1 to 10 µM under setting [1] and 2.8 µM under setting [2].
